Patent US6930185B2, “Melanin-concentrating hormone antagonist” (Takeda Chemical Industries, Ltd., priority 2000, dated 2005)

| Compound | melting point |
| --- | --- |
| Cc1ccc(C2CCN(C(=O)Nc3ccc4nc(CN5CCCCC5)ccc4c3)CC2)cc1 [Example 64, 4-(4-Methylphenyl)-N-[2-(1-piperidinylmethyl)-6-quinolinyl]-1-piperidinecarboxamide] | 204 to 205 °C (dec.) |
| O=C(Nc1ccc2nc(CN3CCCCC3)ccc2c1)N1CCC(c2ccc(F)cc2)CC1 [Example 65, 4-(4-Fluorophenyl)-N-[2-(1-piperidinylmethyl)-6-quinolinyl]-1-piperidinecarboxamide] | 203 to 204 °C (dec.) |
| O=C(Nc1ccc2nc(CN3CCCCC3)ccc2c1)c1ccc(-c2ccc(F)cc2F)nc1 [Example 69, 6-(2,4-Difluorophenyl)-N-[2-(1-piperidinylmethyl)-6-quinolinyl]nicotinamide] | 182 to 183 °C |
| CC1(C)CCCC(C)(C)N1Cc1ccc2cc(NC(=O)c3ccc(-c4ccc(Cl)cc4)nc3)ccc2n1 [Example 72, 6-(4-Chlorophenyl)-N-[2-[(2,2,6,6-tetramethyl-1-piperidinyl)methyl]-6-quinolinyl]nicotinamide] | 258 to 259 °C |
| Cc1ccc(-c2ccc(C(=O)Nc3ccc4nc(CN5C(C)(C)CCCC5(C)C)ccc4c3)cn2)cc1 [Example 73, 6-(4-Methylphenyl)-N-[2-[(2,2,6,6-tetramethyl-1-piperidinyl)methyl]-6-quinolinyl]nicotinamide] | 246 to 247 °C |
| CC1(C)CCCC(C)(C)N1Cc1ccc2cc(NC(=O)N3CCC(c4ccc(Cl)cc4)CC3)ccc2n1 [Example 74, 4-(4-Chlorophenyl)-N-[2-[(2,2,6,6-tetramethyl-1-piperidinyl)methyl]-6-quinolinyl]-1-piperidinecarboxamide] | 203 to 204 °C |
| Cc1ccc(C2CCN(C(=O)Nc3ccc4nc(CN5C(C)(C)CCCC5(C)C)ccc4c3)CC2)cc1 [Example 75, 4-(4-Methylphenyl)-N-[2-[(2,2,6,6-tetramethyl-1-piperidinyl)methyl]-6-quinolinyl]-1-piperidinecarboxamide] | 200 to 202 °C |
| C[C@@H]1CCC[C@H](C)N1Cc1ccc2cc(NC(=O)c3ccc(-c4ccc(F)cc4)cc3)ccc2n1 [Example 79, 4′-Fluoro-N-[2-[(cis-2,6-dimethyl-1-piperidinyl)methyl]-6-quinolinyl][1,1′-biphenyl]-4-carboxamide] | 187 to 188 °C |
| C[C@@H]1CCC[C@H](C)N1Cc1ccc2cc(NC(=O)c3ccc(-c4ccccc4)cc3)ccc2n1 [Example 80, N-[2-[(cis-2,6-Dimethyl-1-piperidinyl)methyl]-6-quinolinyl][1,1′-biphenyl]-4-carboxamide] | 180 to 181 °C |
| Cc1ccc(-c2ccc(C(=O)Nc3ccc4nc(CN5[C@H](C)CCC[C@@H]5C)ccc4c3)cc2)cc1 [Example 81, 4′-Methyl-N-[2-[(cis-2,6-dimethyl-1-piperidinyl)methyl]-6-quinolinyl][1,1′-biphenyl]-4-carboxamide] | 198 to 199 °C (dec.) |
| C[C@@H]1CCC[C@H](C)N1Cc1ccc2cc(NC(=O)c3ccc(-c4ccc(Cl)cc4)nc3)ccc2n1 [Example 83, 6-(4-Chlorophenyl)-N-[2-[(cis-2,6-dimethyl-1-piperidinyl)methyl]-6-quinolinyl]nicotinamide] | 217 to 219 °C (dec.) |
| Cc1ccc(C2CCN(C(=O)Nc3ccc4nc(CN5[C@H](C)CCC[C@@H]5C)ccc4c3)CC2)cc1 [Example 86, 4-(4-Methylphenyl)-N-[2-[(cis-2,6-dimethyl-1-piperidinyl)methyl]-6-quinolinyl]-1-piperidinecarboxamide] | 177 to 178 °C (dec.) |
| CC1=NCCN1Cc1ccc2cc(NC(=O)c3ccc(-c4ccccc4)cc3)ccc2n1 [Example 93, N-[2-[(2-Methyl-4,5-dihydro-1H-imidazol-1-yl)methyl]-6-quinolinyl][1,1′-biphenyl]-4-carboxamide] | 212 to 220 °C (dec.) |
| O=C(Nc1ccc2nc(CN3CCN=C3c3ccccc3)ccc2c1)c1ccc(-c2ccccc2)cc1 [Example 94, N-[2-[(2-Phenyl-4,5-dihydro-1H-imidazol-1-yl)methyl]-6-quinolinyl][1,1′-biphenyl]-4-carboxamide] | 212 to 216 °C (dec.) |
| O=C(Nc1ccc2cc(CN3CCCC3)ccc2c1)N1CCC(c2ccc(F)cc2)CC1 [Example 99, 4-(4-Fluorophenyl)-N-[6-(1-pyrrolidinylmethyl)-2-naphthyl]-1-piperidinecarboxamide] | 209 to 211 °C |
| COc1ccc(C2CCN(C(=O)Nc3ccc4cc(CN5CCCC5)ccc4c3)CC2)cc1 [Example 100, 4-(4-Methoxyphenyl)-N-[6-(1-pyrrolidinylmethyl)-2-naphthyl]-1-piperidinecarboxamide] | 194 to 196 °C |
| O=C(Nc1ccc2cc(CN3CCCC3)ccc2c1)N1CCC(c2ccccc2)CC1 [Example 102, 4-Phenyl-N-[6-(1-pyrrolidinylmethyl)-2-naphthyl]-1-piperidinecarboxamide] | 193 to 195 °C |
| Cc1ccc(C2CCN(C(=O)Nc3ccc4cc(CN5CCCC5)ccc4c3)CC2)cc1 [Example 103, 4-Methylphenyl-N-[6-(1-pyrrolidinylmethyl)-2-naphthyl]-1-piperidinecarboxamide] | 210 to 212 °C |

| Compound | melting point |
| --- | --- |
| O=C(Nc1ccc2nc(CN3CCCCC3c3cccnc3)ccc2c1)c1ccc(-c2ccc(Cl)cc2)cc1 (centres unmarked) [Example 116, 4′-Chloro-N-[2-[[2-(3-pyridinyl)-1-piperidinyl]-methyl]-6-quinolinyl][1,1′-biphenyl]-4-carboxamide] | 124 to 126 °C (dec.) |
| COC[C@@H]1CCCN1Cc1ccc2cc(NC(=O)c3ccc(-c4ccc(Cl)cc4)cc3)ccc2n1 [Example 117, 4′-Chloro-N-[2-[[(2S)-2-(methoxymethyl)pyrrolidinyl]-methyl]-6-quinolinyl][1,1′-biphenyl]-4-carboxamide] | 172 to 174 °C |
| CC(C)(C)OC(=O)[C@@H]1CCCN1Cc1ccc2cc(NC(=O)c3ccc(-c4ccc(Cl)cc4)cc3)ccc2n1 [Example 118, Tert-butyl (2S)-1-[[6-[[(4′-chloro[1,1′-biphenyl]-4-yl)carbonyl]amino]-2-quinolinyl]methyl]-2-pyrrolidinecarboxylate] | 163 to 166 °C |
| COc1ccc(C2CCN(C(=O)Nc3ccc4cc(CN5C(C)(C)CCCC5(C)C)ccc4c3)CC2)cc1 [Example 119, 4-(4-Methoxyphenyl)-N-[6-[(2,2,6,6-tetramethyl-1-piperidinyl)methyl]-2-naphthyl]-1-piperidinecarboxamide] | 164 to 166 °C |
| COc1ccc(-c2ccc(C(=O)Nc3ccc4cc(CN5C(C)(C)CCCC5(C)C)ccc4c3)cc2)cc1 [Example 120, 4′-Methoxy-N-[6-[(2,2,6,6-tetramethyl-1-piperidinyl)methyl]-2-naphthyl][1,1′-biphenyl]-4-carboxamide] | 212 to 214 °C |
| CC1(C)CCCC(C)(C)N1Cc1ccc2cc(NC(=O)c3ccc(-c4ccc(F)cc4)cc3)ccc2c1 [Example 121, 4′-Fluoro-N-[6-[(2,2,6,6-tetramethyl-1-piperidinyl)methyl]-2-naphthyl][1,1′-biphenyl]-4-carboxamide] | 238 to 241 °C |
| Cc1ccc(-c2ccc(C(=O)Nc3ccc4cc(CN5C(C)(C)CCCC5(C)C)ccc4c3)cc2)cc1 [Example 122, 4′-Methyl-N-[6-[(2,2,6,6-tetramethyl-1-piperidinyl)methyl]-2-naphthyl][1,1′-biphenyl]-4-carboxamide] | 235 to 237 °C |
| CC1(C)CCCC(C)(C)N1Cc1ccc2cc(NC(=O)c3ccc(-c4ccc(Cl)cc4)cc3)ccc2c1 [Example 123, 4′-Chloro-N-[6-[(2,2,6,6-tetramethyl-1-piperidinyl)methyl]-2-naphthyl][1,1′-biphenyl]-4-carboxamide] | 244 to 246 °C |
| CC(C)N(Cc1ccc2cc(NC(=O)c3ccc(-c4ccc(Cl)cc4)cc3)ccc2c1)C(C)C [Example 124, 4′-Chloro-N-[6-[(diisopropylamino)methyl]-2-naphthyl][1,1′-biphenyl]-4-carboxamide] | 246 to 250 °C |
| CC(C)N(Cc1ccc2cc(NC(=O)c3ccc(-c4ccccc4)cc3)ccc2n1)C(C)C [Example 133, N-[2-[(Diisopropylamino)methyl]-6-quinolinyl][1-1′-biphenyl]-4-carboxamide] | 208 to 209 °C |
| COc1ccc(-c2ccc(C(=O)Nc3ccc4nc(CN(C(C)C)C(C)C)ccc4c3)cc2)cc1 [Example 134, N-[2-[(Diisopropylamino)methyl]-6-quinolinyl]-4′-methoxy[1-1′-biphenyl]-4-carboxamide] | 223 to 225 °C |
| CC(C)N(Cc1ccc2cc(NC(=O)c3ccc(-c4ccc(F)cc4)cc3)ccc2n1)C(C)C [Example 135, N-[2-[(Diisopropylamino)methyl]-6-quinolinyl]-4′-fluoro[1-1′-biphenyl]-4-carboxamide] | 207 to 209 °C |
| Cc1ccc(-c2ccc(C(=O)Nc3ccc4nc(CN(C(C)C)C(C)C)ccc4c3)cc2)cc1 [Example 136, N-[2-[(Diisopropylamino)methyl]-6-quinolinyl]-4′-methyl [1-1′-biphenyl]-4-carboxamide] | 225 to 227 °C |
| Cc1ccc(-c2ccc(C(=O)Nc3ccc4nc(CN(C(C)C)C(C)C)ccc4c3)cn2)cc1 [Example 137, N-[2-[(Diisopropylamino)methyl]-6-quinolinyl]-6-(4-methylphenyl)nicotinamide] | 211 to 213 °C |
| CC(C)N(Cc1ccc2cc(NC(=O)c3ccc(-c4ccc(Cl)cc4)nc3)ccc2n1)C(C)C [Example 138, 6-(4-Chlorophenyl)-N-[2-[(diisopropylamino)methyl]-6-quinolinyl]nicotinamide] | 201 to 203 °C |
| Cc1ccc(C2CCN(C(=O)Nc3ccc4nc(CN(C(C)C)C(C)C)ccc4c3)CC2)cc1 [Example 139, N-[2-[(Diisopropylamino)methyl]-6-quinolinyl]-4-(4-methylphenyl)-1-piperidinecarboxamide] | 184 to 186 °C |
| CC(C)N(Cc1ccc2cc(NC(=O)N3CCC(c4ccc(Cl)cc4)CC3)ccc2n1)C(C)C [Example 140, 4-(4-Chlorophenyl)-N-[2-[(diisopropylamino)methyl]-6-quinolinyl]-1-piperidinecarboxamide] | 201 to 203 °C |
